Measurements as given in patent US20240218342A1, “SITE-SPECIFIC GLYCAN REMODELING OF LYSOSOMAL ENZYMES AND APPLICATIONS THEREOF” (priority 2021, published 2024).
Entries after “also recorded” stand apart in the source; their conditions may differ.

What was measured:
[1] = tested on: GAA-deficient multinucleated myotubes (KO); experiment: LAMP1 immunofluorescence (lysosomal swelling) in GAA KO myotubes; assay type: cell-based, mouse; settings: 5 μM for 24 hours, confocal images
Description: (§1) Muscle cell culture, treatment, processing, and analysis. The biological effect of the Endo-A (69) and Endo-F3 (70) remodeled rhGAA was investigated in an in vitro model of Pompe disease.^[11, 12] The myoblasts are grown on Matrigel (Corning; 354234)-coated 6-well plates at 33° C. in an atmosphere of 5% CO2 in proliferation medium [20% fetal bovine serum, 10% horse serum, 1% chick embryo extract, recombinant IFN-γ (100 U/mL; Life Technologies), 1× penicillin/streptomycin/L-glutamine in high-glucose (4.5 g/L) DMEM]. When the cells reach 70-80% confluency (3-4 days), the medium is switched to differentiation medium [DMEM containing 2% horse serum, 0.5% chick embryo extract, recombinant human insulin (10 μg/mL, Life Technologies, 12585-014), 1× penicillin/streptomycin/L-glutamine], and the cells are moved to 37° C. in an atmosphere of 5% CO2. Myotubes begin to form within 3-4 days; they can survive for ˜ 8-10 days in culture until they start twitching and detach from the surface.
The commercial rhGAA, Endo-A- or Endo-F3 remodeled rhGAA were added to the myotubes (on day 8 in differentiation medium) at a concentration of 5 μM for 24 hours; n=5 independent experiments for each condition. Wild type (WT) immortalized myotubes and untreated KO myotubes were used for comparison. The cells were homogenized on ice in deionized H2O, sonicated, and centrifuged at 18,000×g at 4° ° C. for 15 min. […]

[2] = tested on: GAA-deficient multinucleated myotubes (KO); experiment: Cell-associated GAA activity in treated GAA KO myotubes; assay type: cell-based, mouse; settings: 5 μM for 24 hours, compared to untreated cells
Description: as §1, with “surface. […]” for “surface.”
Measurement of cell-associated GAA activity. The GAA activity in the cells was measured by using 4-methylumbelliferyl-α-D-glucopyranoside (4-MU-α-glucopyranoside; Sigma-Aldrich #M9766) as the fluorogenic GAA substrate as described.^[13] […] Fluorescence was measured on a multi-label plate reader (TECAN, SPARK 10M) at 360 nm excitation/465 nm emission.

[3] = tested on: GAA-deficient multinucleated myotubes (KO); experiment: Western blotting of treated GAA KO myotube lysates; assay type: cell-based, mouse; settings: 5 μM for 24 hours
Description: as §1, with “surface. […]” for “surface.”
Western blotting. […] Protein concentrations of the supernatants were measured using the Bio-Rad Protein Assay (Bio-Rad Laboratories, Inc.), and equal amounts of protein were run on SDS-PAGE gels (Invitrogen, Carlsbad, CA). […]

CI-MPR = CI-MPR (Homo sapiens, UniProt P11717); settings: previous studies; read-out: apparent KD; cited from earlier work
Chain of CI-MPR (P11717 41-2491, species assumed): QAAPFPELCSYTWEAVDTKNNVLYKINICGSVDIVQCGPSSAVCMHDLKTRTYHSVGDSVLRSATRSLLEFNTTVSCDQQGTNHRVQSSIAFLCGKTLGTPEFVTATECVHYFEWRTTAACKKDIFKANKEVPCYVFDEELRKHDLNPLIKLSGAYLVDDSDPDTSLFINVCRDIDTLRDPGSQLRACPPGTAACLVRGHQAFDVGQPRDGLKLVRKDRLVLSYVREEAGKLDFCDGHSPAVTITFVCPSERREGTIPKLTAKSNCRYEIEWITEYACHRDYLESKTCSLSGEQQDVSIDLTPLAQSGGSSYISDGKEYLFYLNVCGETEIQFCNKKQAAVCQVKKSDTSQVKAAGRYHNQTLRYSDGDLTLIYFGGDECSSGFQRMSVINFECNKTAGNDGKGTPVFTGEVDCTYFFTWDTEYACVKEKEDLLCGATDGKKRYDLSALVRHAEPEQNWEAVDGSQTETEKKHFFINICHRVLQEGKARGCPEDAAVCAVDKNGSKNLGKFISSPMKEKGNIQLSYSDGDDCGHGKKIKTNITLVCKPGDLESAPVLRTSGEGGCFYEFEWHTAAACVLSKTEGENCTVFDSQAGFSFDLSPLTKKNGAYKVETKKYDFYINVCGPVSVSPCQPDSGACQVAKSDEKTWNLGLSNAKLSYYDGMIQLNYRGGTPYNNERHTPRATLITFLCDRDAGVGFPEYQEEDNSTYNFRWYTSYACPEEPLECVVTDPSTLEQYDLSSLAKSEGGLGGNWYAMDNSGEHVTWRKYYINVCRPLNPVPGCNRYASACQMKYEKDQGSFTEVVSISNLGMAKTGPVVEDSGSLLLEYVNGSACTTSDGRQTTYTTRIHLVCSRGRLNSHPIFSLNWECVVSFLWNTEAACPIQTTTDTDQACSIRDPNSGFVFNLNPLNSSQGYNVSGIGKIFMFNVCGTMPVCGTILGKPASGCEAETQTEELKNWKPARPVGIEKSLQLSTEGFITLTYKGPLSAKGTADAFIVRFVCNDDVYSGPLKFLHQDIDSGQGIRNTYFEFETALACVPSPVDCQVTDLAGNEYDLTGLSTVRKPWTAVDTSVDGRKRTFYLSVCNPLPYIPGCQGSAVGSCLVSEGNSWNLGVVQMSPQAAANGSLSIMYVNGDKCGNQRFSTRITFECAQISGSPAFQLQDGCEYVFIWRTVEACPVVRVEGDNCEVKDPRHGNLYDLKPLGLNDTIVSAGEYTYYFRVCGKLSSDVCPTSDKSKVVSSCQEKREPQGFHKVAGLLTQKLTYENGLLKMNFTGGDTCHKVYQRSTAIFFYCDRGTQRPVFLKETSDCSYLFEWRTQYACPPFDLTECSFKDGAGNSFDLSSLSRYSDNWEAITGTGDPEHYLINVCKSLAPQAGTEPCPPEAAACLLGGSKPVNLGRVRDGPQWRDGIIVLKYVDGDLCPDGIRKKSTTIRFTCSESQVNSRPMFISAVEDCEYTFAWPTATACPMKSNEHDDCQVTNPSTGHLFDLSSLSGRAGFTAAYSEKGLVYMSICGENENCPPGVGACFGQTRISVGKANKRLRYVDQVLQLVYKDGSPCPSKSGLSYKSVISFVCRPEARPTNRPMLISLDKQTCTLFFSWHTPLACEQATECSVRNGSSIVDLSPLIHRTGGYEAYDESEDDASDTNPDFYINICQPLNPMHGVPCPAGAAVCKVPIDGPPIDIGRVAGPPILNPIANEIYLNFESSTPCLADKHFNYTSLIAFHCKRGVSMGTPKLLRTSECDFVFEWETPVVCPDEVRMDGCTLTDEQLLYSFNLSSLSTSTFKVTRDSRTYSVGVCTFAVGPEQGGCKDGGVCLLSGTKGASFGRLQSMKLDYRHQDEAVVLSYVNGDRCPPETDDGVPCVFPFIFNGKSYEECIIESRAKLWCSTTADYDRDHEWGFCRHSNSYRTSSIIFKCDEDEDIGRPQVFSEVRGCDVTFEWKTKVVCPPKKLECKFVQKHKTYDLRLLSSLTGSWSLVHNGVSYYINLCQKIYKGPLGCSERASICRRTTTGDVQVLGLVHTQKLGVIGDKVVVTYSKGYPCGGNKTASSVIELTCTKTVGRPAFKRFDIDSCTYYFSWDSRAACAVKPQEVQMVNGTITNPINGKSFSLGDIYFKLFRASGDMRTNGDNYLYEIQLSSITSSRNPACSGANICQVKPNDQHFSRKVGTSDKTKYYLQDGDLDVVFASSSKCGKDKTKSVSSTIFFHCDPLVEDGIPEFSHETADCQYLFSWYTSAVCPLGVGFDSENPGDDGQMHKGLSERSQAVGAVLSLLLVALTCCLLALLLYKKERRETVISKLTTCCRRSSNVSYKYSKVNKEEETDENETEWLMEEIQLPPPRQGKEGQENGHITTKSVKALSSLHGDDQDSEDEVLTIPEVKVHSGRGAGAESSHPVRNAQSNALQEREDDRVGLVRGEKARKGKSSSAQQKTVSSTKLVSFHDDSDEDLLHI

| Substance | enlarged LAMP1-positive lysosomes [1] | GAA activity in cell lysates (cellular uptake) [2] | levels of endosomal (Rab5) and lysosomal (LAMP1) markers ([3]; Western blot) | processed, mature lysosomal form of rhGAA (76 kDa) in cells ([3]; Western blot with anti-human GAA antibodies) | Kd (CI-MPR) [nM] |
| --- | --- | --- | --- | --- | --- |
| Lumizyme: recombinant human acid α-glucosidase (alglucosidase alfa, Genzyme), therapeutic lysosomal enzyme for Pompe disease | Enlarged lysosomes were seen; also recorded: can be detected; also recorded: contain enlarged LAMP1-positive lysosomes | only a slight increase (statistically insignificant) | remained the same as in the untreated GAA-deficient cells | barely detectable |  |
| ATB200: novel rhGAA carrying a higher M6P content that binds the CI-MPR with high affinity (previous studies) |  |  |  |  | 2 to 4 |
